The source of these data is patent publication US7790894B2, “Mycobacterial inhibitors” (Janssen Pharmaceutica NV, priority 2004, dated 2010).

Structures are written as SMILES.

Data set [1] relates to M. Smegmatis ATCC607. In words: In-vitro anti-bacterial activity against strain M. smegmatis ATCC607 (growth inhibition, Alamar Blue fluorescence). The conditions noted are these: strain ATCC607, 48 hours at 37° C.; for IC50: Mycolicibacterium smegmatis, ATCC607, 48 h, read-out: M. smegmatis pIC50 (converted). In kind it is cell-based. How it is done: D.2. In-Vitro Method for Testing Compounds for Anti-Bacterial Activity Against Strain M. Smegmatis ATCC607 Flat-bottom, sterile 96-well plastic microtiter plates were filled with 180 μl of sterile deionized water, supplemented with 0.25% BSA. […] Serial five-fold dilutions (45 μl in 180 μl) were made directly in the microtiter plates from column 2 to 11 using a customised robot system (Zymark Corp. Hopkinton, Mass.). Pipette tips were changed after every 3 dilutions to minimize pipetting errors with high hydrophobic compounds. […] Approximately 250 CFU per well of bacteria inoculum, in a volume of 100 μl in 2.8× Mueller-Hinton broth medium, was added to the rows […]. The same volume of broth medium without inoculum was added to column 12 in row A to H. The cultures were incubated at 37° C. for 48 hours in a humidified 5% CO2 atmosphere (incubator with open air valve and continuous ventilation). At the end of incubation, two days after inoculation, the bacterial growth was quantitated fluorometrically. Therefore Alamar Blue (10×) was added to all wells in a volume of 20 μl and plates were incubated for another 2 hours at […] The fluorescence was read in a computer-controlled fluorometer (Cytofluor, Biosearch) at an excitation wavelength of 530 nm and an emission wavelength of 590 nm (gain 30). The % growth inhibition achieved by the compounds was calculated according to standard methods. The pIC50 was defined as the 50% inhibitory concentration for bacterial growth.

Data set [2] deals with Mycobacterium tuberculosis (strain H37RV). In words: In-vitro testing against M. tuberculosis (growth inhibition, Resazurin fluorescence). Type of data set: cell-based. The conditions noted are these: 168 h, 7 days at 37° C., bacterial growth, read-out: M. tuberculosis pIC50 (converted).

Take `CCc1cc2cc(C(c3ccccc3)C(O)(CCN(C)C)c3cc(F)cc(F)c3)ccc2nc1Cl` (single isomer, unassigned) [Compound 15]: the IC50 in data set [1] is 398 nM; in data set [2] it was 10000 nM.

For the compound `CN(C)CC[C@](O)(c1cccc(F)c1)C(Cc1ccccc1)c1ccc2cc(Br)ccc2n1` (stereo partly shown) [Compound 1], the melting point amounted to 136 °C. Also, the IC50 in data set [1] was 631 nM.

For the compound `CN(C)CC[C@](O)(c1cccc2ccccc12)C(Cc1ccccc1)c1ccc2cc(Br)ccc2n1` (stereo partly shown) [Compound 2], the melting point is 143 °C. Moreover, in data set [1], the IC50 is 316 nM.

`CN(C)CC[C@@](O)(c1cccc2ccccc12)C(Cc1ccccc1)c1ccc2cc(Br)ccc2n1` (stereo partly shown) [Compound 3]: the melting point was 69 °C. In addition, the IC50 in data set [1] was 2000 nM.

Consider `CN(C)CC[C@@](O)(c1cccc(F)c1)C(c1ccccc1)c1ccc2cc(Br)ccc2n1` (stereo partly shown) [Compound 6], for which the melting point turned out to be 134 °C. Moreover, in data set [1], the IC50 is 12600 nM.

Regarding `CCc1cc2ccc([C@H](c3ccccc3)[C@@](O)(CCN(C)C)c3cccc4ccccc34)cc2nc1Cl` [Compound 8], the IC50 in data set [1] is 1580 nM.

Turning to `CCc1cc2ccc([C@H](c3ccccc3)[C@@](O)(CCN(C)C)c3cc(F)cc(F)c3)cc2nc1Cl` [Compound 9], in data set [1], the “M. smegmatis pIC50” value is listed as 5.8.

Take `CCc1cc2ccc([C@H](c3ccccc3)[C@@](O)(CCN(C)C)c3cc(F)cc(F)c3)cc2nc1Cl` [Compound 10]: the results for the IC50 in data set [1] and in data set [2] were 1260 nM and 7940 nM, respectively.

Regarding `CN(C)CC[C@](O)(c1cc(F)cc(F)c1)[C@@H](c1ccccc1)c1cc(Br)cc2c(-c3ccccc3)cc(Cl)nc12` [Compound 11], the melting point worked out at 220 °C. In addition, in data set [1], the IC50 was 2000 nM.
